# Reference: patent US20100260673A1, “PHAGE DISPLAY PEPTIDE PROBES FOR IMAGING EARLY RESPONSES TO ANTIANGIOGENIC TREATMENT” (priority 2009, published 2010)
# Like-named read-outs stand apart in the source and are kept apart here. Where a SMILES comes first, the peptide text is derived from it. Where no end group is shown, it is not given here. The star is where a group is joined. Propanoyl(2-F) = CC(F)C(=O)*
# Assays:
# LS174T tumor [1] = details: mouse, in vivo
# Procedure: The 4T1 cells were harvested from the tumor and suspended in sterile PBS at a concentration of 2×10^7 viable cells/mL.
# Tumor Growth Study: When palpable tumors (150-200 mm^3) were present in all animals, mice were randomly divided into two groups (n=10/group). Cancer therapy response was evaluated in LS174T human colorectal cancer, 4T1 murine breast cancer and 22B human head-neck cancer models. […] The mouse body weight and tumor volume were measured every 3 days for up to 20 days before euthanasia.
# Small Animal PET Imaging: A detailed procedure for positron emission tomography (PET) imaging has been reported earlier (Li et al., (2008) J. Nucl. Med. 49: 453-461). Briefly, PET scans were performed using a microPET R4 rodent model scanner (Siemens Medical Solutions). […] The images were reconstructed by a two-dimensional ordered subsets expectation maximum (OSEM) algorithm with no attenuation or scatter correction. For each microPET scan, regions of interest (ROIs) were drawn over the tumor by using vendor software ASI Pro 5.2.4.0 on decay corrected whole-body coronal images. Assuming a tissue density of 1 g/ml, the ROIs were converted to MBq/g/min using a conversion factor, and then divided by the administered activity to obtain an imaging ROI-derived percent injected dose per gram (% ID/g).
# [2] = for metabolic stability in vivo: urine after 1 hr
# Procedure: Metabolic Stability of AVP Peptide: Nude mice bearing LS174T tumor xenografts were intravenously injected with 3.7 MBq of ^18F-FP-AVP. Urine samples were collected 1 h after tracer injection and analyzed by HPLC.
# Radiochemistry: Semi-preparative reversed-phase high performance liquid chromatography (RPHPLC) using a Vydac protein and peptide column (218TP510; 5 μm, 250×10 mm) was performed on a Dionex 680 chromatography system with a UVD 170U absorbance detector and model 105S single-channel radiation detector (Carroll & Ramsey Associates). The recorded data were processed using Chromeleon version 6.50 software. With a flow rate of 5 ml/min, the mobile phase was changed from 95% solvent A [0.1% trifluoroacetic acid (TFA) in water] and 5% B [0.1% TFA in acetonitrile] (0-2 min) to 35% solvent A and 65% solvent B at 32 min. […] C18 Sep-Pak cartridges (Waters) were pretreated with ethanol and water before use.
# [3] = test system: LS174T human colorectal cancer; assay: Tumor growth study; format: in vivo, mice
# Procedure: Animal Models: Female athymic nude mice (nu/nu) were obtained from Harlan (Indianapolis, Ind.) at 6-8 weeks of age and were kept under sterile conditions. The LS174T or 22B cells were harvested and suspended in sterile PBS at a concentration of 5×10^7 viable cells/ml. Viable tumor cells (5×10^6) in sterile PBS (100 μL) were injected subcutaneously into the right shoulder. […] Tumor growth was followed by caliper measurements of perpendicular measures of the tumor. The tumor volume was estimated by the formula: tumor volume=a×(b2)/2, where a and b were the tumor length and width respectively in mm.
# [4] = test system: tumor that responds to the anti-angiogenic drug ZD4190 therapy; details: ZD4190-treated
# Description: Two-dimensional NIR fluorescence images were acquired at various time points after injection using a Maestro in vivo imaging system (CRI, Woburn, Mass.; IRdye800 excitation=735 nm, emission=780 nm long pass).
# [5] = test system: LS174T human colorectal cancer cells; details: 48 h incubation, various concentrations
# Procedure: (§1) Toxicity of AVP on Cell Viability by MTT Assay: MTT (3-(4,5-dimethylthiazolyl-2)-2,5-diphenyltetrazolium bromide; ATCC) assays were used to measure cell viability. Three thousand tumor cells or HUVECs were seeded per well in a 96-well plate and allowed to incubate for 24 h. After incubation with various concentrations of peptide AVP for 48 h, 10 μl of MTT reagent was added to each well. Four hours later, when the purple precipitate became visible, the supernatant was discarded, and 100 μl of DMSO was added to each well and the plate was shaken in the dark for 10 min at room temperature. The absorbance at 570 nm was then measured using a microplate reader (Tecan).
# [6] = test system: 4T1 murine breast cancer cells; details: 4T1, 48 h incubation, various concentrations
# Procedure: as §1
# [7] = test system: human umbilical vein endothelial cells (HUVEC); details: 48 h incubation, various concentrations
# Procedure: as §1
# 22B tumor = details: Bevacizumab-treated mice, 4T1 and 22B in the same animal
# 4T1 tumor = details: Bevacizumab-treated mice
# LS174T tumor [8] = details: Bevacizumab-treated mice
molecule,measurement,setting,value
CC(C)C[C@H](NC(=O)C(C)F)C(=O)N[C@@H](CC(C)C)C(=O)N[C@@H](C)C(=O)N[C@@H](CC(=O)O)C(=O)N[C@H](C(=O)N[C@H](C(=O)N[C@@H](Cc1c[nH]cn1)C(=O)N[C@@H](Cc1c[nH]cn1)C(=O)N[C@@H](CCCNC(=N)N)C(=O)N1CCC[C@H]1C(=O)N[C@@H](Cc1c[nH]c2ccccc12)C(=O)N[C@H](C(=O)O)[C@@H](C)O)[C@@H](C)O)[C@@H](C)O (some centres unmarked) [18F-FP-AVP] ({Propanoyl(2-F)}-LLADTTHHRPWT-OH),"microPET tumor uptake, Avastin treated versus control PBS treated tumors",LS174T tumor [1],significantly higher uptake
same,metabolic stability in vivo,[2],good metabolic stability
same,metabolic stability in vivo,[2]; listed as 18F-labeled Bevacizumab (AVASTIN™)-responsive peptide,minimal degradation or metabolism
same,intact tracer in urine,"[2]; urine sample 1 h after i.v. injection, HPLC",about 90%
Bevacizumab (AVASTIN™): recombinant humanized monoclonal IgG1 antibody that binds human VEGF,additional time after imaging until statistically significant change in tumor volume versus saline control,"[3]; LS174T and 22B tumor models, imaging on fifth day of treatment",5 to 6 days
same,difference in tumor volume between treatment and control groups,"[3]; fifth day following the start of treatment, 1 day after three doses",no difference
LLADTTHHRPWT [AVP],concentration in tumor responding to ZD4190 therapy,[4],concentrated
same,effect on cells (MTT),[5],little effect
same,effect on cells (MTT),[6],little effect
same,effect on cells (MTT),[7],little effect
same,concentration in 22B tumor,22B tumor,is concentrated
same,concentration in / binding to 4T1 tumor,4T1 tumor; listed as AVP peptide,no binding
same,concentration in / binding to 4T1 tumor,4T1 tumor; listed as Bevacizumab (AVASTIN™)-responsive peptide,not concentrated
same,concentration in LS174T tumor,LS174T tumor [8],is concentrated
